From article PMC7571145, “Multistep Synthesis and In Vitro Anticancer Evaluation of 2-Pyrazolyl-Estradiol Derivatives, Pyrazolocoumarin-Estradiol Hybrids and Analogous Compounds” (Molecules, 2020) come the findings set out here.

SMILES strings stand for the structures. A value given as a limit tells only on which side of the number the result lay.

In data set [1] the test system is HeLa cells. Briefly: MTT cytotoxicity assay on HeLa cells. It counts as cell-based. To be noted: 72 h; for primary growth inhibitory screen, cell viability, HeLa: 2.5 µM, mean±SD, untreated control about 100. How it is done:
(§1) Cytotoxicity screens were performed to assess the in vitro anticancer activity of the synthesized A-ring-linked 2-pyrazoles of estradiol, the pyrazolocoumarin-estradiol hybrids, and their structurally simplified non-steroidal analogs on various cancerous cell lines such as MCF-7, PC-3, DU145, and HeLa and on non-cancerous MRC-5 fibroblasts. The 2-acetyl-phenol starting materials (4, 5, and 15) were also included for comparison. All compounds were applied in 2.5 µM concentration for 72 h. The obtained cell viability data were used to construct a heat map (Figure 2) in order to select compounds that exert cancer cell line-specific cytotoxicity. […] Furthermore, some compounds discriminated only DU145 cells and could eliminate these type of prostate cancer cells.
(§2) To understand structure-function relationships, we also included the structural analogs of the selected compounds, namely 7a (C-17 acetate of 8a), 8c (C-17 OH counterpart of 7c), and 9a (steroidal pair of 19a) into subsequent analyses. […] For this, compounds were applied on MCF-7, PC-3, DU145, and HeLa and on non-cancerous MRC-5 fibroblasts in various concentrations for 72 h or were treated with cisplatin at different concentrations. On the viability data, dose–response curves were fitted (Figure S1) and IC50 values were calculated accordingly (Table 3). In agreement with the primary cytotoxicity screen (Table S1), the obtained IC50 concentrations clearly indicated which compound was selectively effective on one or more cancer cell lines. […] Typically, acetylated steroidal pyrazoles were less favorable than deacetylated counterparts due to reduced cancer cell selectivity (7c, 10a).
(§3) To evaluate the in vitro pharmacological effects of the synthesized molecules, each compound was first dissolved in cell culture grade DMSO (Sigma) to a final concentration of 10 mM. Using MTT colorimetric assay, the cytotoxicity of these compounds was evaluated on cancerous (MCF-7, HeLa, DU145, PC-3) and non-cancerous (MRC-5) cell lines. Briefly, 5000 cells/well of each cell line were seeded in 96-well plates and were left to grow overnight in a 5% CO2 atmosphere at 37 °C. On the next day, cells were treated with each derivative separately, in case of the primary screen, or only with the selected compounds upon IC50 determination. Cells were incubated with the test compounds for 72 h in a 5% CO2 atmosphere at 37 °C. End point was measured by incubating cells for 1 h with 0.5 mg/mL of MTT reagent (Serva) dissolved in serum free culture medium. The formazan crystals formed by metabolically active cells were later dissolved in DMSO. Optical density of the obtained solutions was measured at 570 nm using a Synergy HTX plate reader. […] The analysis and conclusions were made based on three independent experiments. Normalized data were analyzed and the heat map was constructed using GraphPad Prism 7 software.
A general note: Formazan colour is commonly taken as a measure of viable cells.

The test system of data set [2] is DU145 cells. Put plainly: MTT cytotoxicity assay on DU145 prostate cancer cells. It counts as cell-based. The conditions noted are these: for primary growth inhibitory screen, cell viability, DU145: 2.5 µM, 72 h, mean±SD, untreated control about 100. How it is done:
as §1, §2, §3

Data set [3] concerns MRC-5 fibroblasts. Briefly: MTT cytotoxicity assay on non-cancerous MRC-5 fibroblasts. It counts as cell-based. The conditions noted are these: 72 h; for primary growth inhibitory screen, cell viability, MRC-5: mean±SD, untreated control about 100. The method, then:
as §1, §2, §3

Data set [4] concerns MCF-7 cells. Briefly: MTT cytotoxicity assay on MCF-7 cells. To be noted: for primary growth inhibitory screen, cell viability, MCF-7: 2.5 µM, 72 h, mean±SD, untreated control about 100. It counts as cell-based. The method, then:
as §1, §2, §3

Data set [5] has as its system PC-3 cells. Put plainly: MTT cytotoxicity assay on PC-3 prostate cancer cells. To be noted: for primary growth inhibitory screen, cell viability, PC-3: 2.5 µM, 72 h, mean±SD, untreated control about 100. It counts as cell-based. How it is done:
as §1, §2, §3

The IC50 is the midpoint of a concentration-inhibition curve. In general, melting point refers to the temperature of the solid-liquid transition. On to `O=Cc1cn(-c2ccc(Cl)cc2)nc1-c1cc2c(cc1O)CCCC2` [Compound 17c, 1′-(4″-Chlorophenyl)-3′-(3-hydroxy-5,6,7,8-tetrahydronaphthalen-2-yl)-1′H-pyrazole-4″-carbaldehyde], for which the melting point lay within 182 to 184 °C. Also, in data set [1], the “primary growth inhibitory screen, cell viability, HeLa” value is recorded as no less than 100±4.0. For the same molecule, the IC50 in data set [1] (Homo sapiens, HeLa, compounds 1-7 µM, mean ± SD, read-out: IC50 on HeLa) is 6.23 ± 1 µM. Further, in data set [2], the “primary growth inhibitory screen, cell viability, DU145” value is 80.3±10.8. Further, the IC50 in data set [2] (Homo sapiens, DU-145, 72 h, compounds 1-7 µM, mean ± SD, read-out: IC50 on DU145) is greater than 7 µM. Also, the “primary growth inhibitory screen, cell viability, MRC-5” value in data set [3] (2.5 µM, MTT) is listed as no less than 100±4.0. Also, in data set [3] (2.5 µM, based on the heat map), the “effect on non-cancerous fibroblasts” value is given as “no or very mild effect”. Also, the IC50 in data set [3] (Homo sapiens, MRC5, MTT, compounds 1-7 µM, mean ± SD, read-out: IC50 on MRC-5) stood at 5.72 ± 1.1 µM. Also, in data set [4], the “primary growth inhibitory screen, cell viability, MCF-7” value is recorded as 77.5±4.6. The IC50 in data set [4] (Homo sapiens, MCF7, 72 h, compounds 1-7 µM, mean ± SD, read-out: IC50 on MCF-7) came out at 4.12 ± 1 µM. Moreover, the “primary growth inhibitory screen, cell viability, PC-3” value in data set [5] is 61.9±2.8. Also, the half-maximal inhibitory concentration (IC50) in data set [5] (Homo sapiens, PC-3, 72 h, compounds 1-7 µM, mean ± SD, read-out: IC50 on PC-3) amounted to 4.39 ± 1 µM.

In the case of `CC(=O)O[C@H]1CC[C@H]2[C@@H]3CCc4cc(O)c(-c5nn(-c6ccc(C)cc6)cc5C=O)cc4[C@H]3CC[C@]12C` [Compound 7b, 2-(4′-Formyl-1′-(4″-tolyl)-1′H-pyrazol-3′-yl)-estra-1,3,5(10)-triene-3,17β-diol-17-acetate], the melting point was 229 to 231 °C. For the same molecule, the “primary growth inhibitory screen, cell viability, HeLa” value in data set [1] is 100.1±2.1. Also, the “primary growth inhibitory screen, cell viability, DU145” value in data set [2] is 98.7±15.6. For the same molecule, the “primary growth inhibitory screen, cell viability, MRC-5” value in data set [3] (2.5 µM, MTT) was determined as 100.4±5.1. In data set [4], the “primary growth inhibitory screen, cell viability, MCF-7” value was no less than 100±4.3. Also, the “primary growth inhibitory screen, cell viability, PC-3” value in data set [5] stood at 98.2±6.5.

Molecule `Cc1ccc(-n2cc(CO)c(-c3cc4c(cc3O)CC[C@@H]3[C@@H]4CC[C@]4(C)[C@@H](O)CC[C@@H]34)n2)cc1` [Compound 11b] had a melting point of 201 to 203 °C. Also, in data set [1], the “primary growth inhibitory screen, cell viability, HeLa” value worked out at 70.1±4.5. The “primary growth inhibitory screen, cell viability, DU145” value in data set [2] turned out to be 97.5±10.1. For the same molecule, the “primary growth inhibitory screen, cell viability, MRC-5” value in data set [3] (2.5 µM, MTT) is on record as no less than 100±2.2. In data set [4], the “primary growth inhibitory screen, cell viability, MCF-7” value stood at 80.4±2.9. In addition, the “primary growth inhibitory screen, cell viability, PC-3” value in data set [5] is on record as 74.3±2.3.

As to `CC(=O)O[C@H]1CC[C@H]2[C@@H]3CCc4cc5oc(=O)c6cn(-c7ccc(Cl)cc7)nc6c5cc4[C@H]3CC[C@]12C` [Compound 9c], the melting point lay in the range of 283 to 285 °C. Also, in data set [1], the “primary growth inhibitory screen, cell viability, HeLa” value is 75.7±1.7. Further, the “primary growth inhibitory screen, cell viability, DU145” value in data set [2] is reported as no less than 100±0.9. The “primary growth inhibitory screen, cell viability, MRC-5” value in data set [3] (2.5 µM, MTT) amounted to 89.5±8.7. Also, the “primary growth inhibitory screen, cell viability, MCF-7” value in data set [4] is reported as 91.1±3.1. Besides, in data set [5], the “primary growth inhibitory screen, cell viability, PC-3” value is 94.1±4.2.

Take `CC(=O)c1cc2c(cc1O)CC[C@@H]1[C@@H]2CC[C@]2(C)[C@@H](O)CC[C@@H]12` [Compound 5, 2-Acetyl-estra-1,3,5(10)-triene-3,17β-diol]: the melting point lay within 189 to 191 °C. Besides, the “primary growth inhibitory screen, cell viability, HeLa” value in data set [1] came out at 99.6±3.5. Besides, the “primary growth inhibitory screen, cell viability, DU145” value in data set [2] is given as 100.6±6.5. The “primary growth inhibitory screen, cell viability, MRC-5” value in data set [3] (2.5 µM, MTT) was no less than 100±7. Also, the “primary growth inhibitory screen, cell viability, MCF-7” value in data set [4] is recorded as 87.5. The “primary growth inhibitory screen, cell viability, PC-3” value in data set [5] worked out at 79.0±3.8.

Regarding `CC(=O)O[C@H]1CC[C@H]2[C@@H]3CCc4cc(O)c(C(C)=O)cc4[C@H]3CC[C@]12C` [Compound 4, 2-Acetyl-estra-1,3,5(10)-triene-3,17β-diol-17-acetate], the melting point is 200 to 202 °C. For the same molecule, the “primary growth inhibitory screen, cell viability, HeLa” value in data set [1] came to 90.0±4.3. In addition, in data set [2], the “primary growth inhibitory screen, cell viability, DU145” value came out at 94.2±8.6. Besides, the “primary growth inhibitory screen, cell viability, MRC-5” value in data set [3] (2.5 µM, MTT) is given as no less than 100±6.6. Further, the “primary growth inhibitory screen, cell viability, MCF-7” value in data set [4] was determined as 92.7±2.2. In data set [5], the “primary growth inhibitory screen, cell viability, PC-3” value is 88.5±6.5.
